Experiments:
human CB1R [1] = biological target: T1, human CB1R (Homo sapiens, UniProt P21554); assay: CB1R positive allosteric modulation (PAM) activity, CRE-luciferase reporter in the presence of the orthosteric agonist CP-55,940; type: cell-based; settings: for percentage of CB1R activity normalized to 100% stimulation induced by 2.5 µM CP-55,940 alone: HEK293T-CB1-CRE-luc cells, tested at 1, 5, 10 and 25 µg/mL in the presence of 2.5 µM CP-55,940, CB1R activity ≥ 150% is considered CB1R PAM activity; for CB1R PAM activity: result in words, HEK293T-CB1-CRE-luc cells with 2.5 µM CP-55,940
T1 construct: expressed in transfected cells; host or cells: HEK293T (HEK293T-CB1-CRE-Luc)
T1 sequence (P21554 whole entry): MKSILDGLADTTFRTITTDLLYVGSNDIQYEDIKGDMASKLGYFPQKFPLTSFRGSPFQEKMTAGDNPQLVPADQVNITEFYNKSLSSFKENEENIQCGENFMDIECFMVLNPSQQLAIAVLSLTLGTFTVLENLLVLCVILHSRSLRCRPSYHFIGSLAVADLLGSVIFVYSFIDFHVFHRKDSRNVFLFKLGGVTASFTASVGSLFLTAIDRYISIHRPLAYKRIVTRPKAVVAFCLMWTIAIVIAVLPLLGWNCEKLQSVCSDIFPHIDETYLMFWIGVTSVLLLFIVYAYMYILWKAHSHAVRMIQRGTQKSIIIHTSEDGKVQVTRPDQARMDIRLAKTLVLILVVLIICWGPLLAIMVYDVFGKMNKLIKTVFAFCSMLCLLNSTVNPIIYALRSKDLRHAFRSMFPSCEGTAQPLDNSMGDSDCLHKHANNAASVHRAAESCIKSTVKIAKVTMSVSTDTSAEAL
Description: The determination of CB1R activity was carried out using the HEK293T-CB1-CRE-Luc cells stably transfected with the human CB1R cDNA, and a construction of CRE-Luc that contains as promoter six consensus cAMP responsive elements (CRE) linked to firefly luciferase reporter gene. The increase in cAMP levels activates the CRE-Luc system, inducing the expression of the luciferase reporter gene. Briefly, HEK293T-CB1-CRE-Luc cells were cultured in supplemented DMEM (Sigma) medium containing 10% FBS (Gibco) and 1% antibiotics penicillin/streptomycin (Sigma) (DMEM complete medium) and maintained at 37° C in a humidified atmosphere of 5% CO2. The day before the assay 10^4 cells per well were seeded in 96 well-plates and incubated overnight. For determining CB1R positive allosteric modulation (PAM) activity, HEK293T-CB1-CRE-Luc cells were treated with increasing concentrations of the fractions for 30 min and then treated with the CB1R orthosteric agonist CP-55,940 at 2.5 µM. For CB1R agonistic activity, HEK293T-CB1-CRE-Luc cells were treated with increasing concentrations of the fractions. CP-55,940 alone, a CB1R orthosteric agonist, was used at 2.5 µM as positive control of cAMP signaling pathway activated by a CB1R-dependent orthosteric mechanism; and cells without stimulus were used as negative control. In both assays, after 6 h of stimulation, cells were washed twice with PBS 1X and lysed in 100 µL lysis buffer containing 25 mM Tris-phosphate (pH 7.8), 8 mM MgCl2, 1 mM DTT, 1% Triton X-100, and 7% glycerol during 15 min at room temperature in a horizontal shaker. Luciferase activity was measured using a TriStar2 Berthold/LB942 multimode reader (Berthold Technologies) following the instructions of the luciferase assay kit (Promega, Madison, Wl, USA). The RLUs (relative light units) were calculated and: (i) For allosteric activity, results were expressed as percentage of CB1R activity normalized to 100% stimulation induced by 2.5 µM CP-55,940, according to the following formula: Percentage of CB1R activity = 100 * (T - B) / (C - B); where T are the RLUs of the cells treated with the fractions and 2.5 µM CP-55,940; C are the RLUs of the cells treated with CP-55,940 alone, and B are the RLUs of the cells without stimulus. CB1R activity ≥ 150% was considered CB1R PAM activity (ii) For the CB1R agonistic activity, results were expressed as a fold change over non-stimulated cells according to the following formula: Fold change of CB1R activity = T / B; where T are RLUs of the cells treated with the fractions and B are the RLUs of the cells without stimulus. CB1R activity ≥ 2.5-fold increase is considered CB1R agonistic activity.

human CB1R [2] = biological target: T1, human CB1R; assay: CB1R agonistic activity, CRE-luciferase reporter without CP-55,940; type: cell-based; settings: HEK293T-CB1-CRE-luc cells, compound alone
Description: The determination of CB1R activity was carried out using the HEK293T-CB1-CRE-Luc cells stably transfected with the human CB1R cDNA, and a construction of CRE-Luc that contains as promoter six consensus cAMP responsive elements (CRE) linked to firefly luciferase reporter gene. The increase in cAMP levels activates the CRE-Luc system, inducing the expression of the luciferase reporter gene. Briefly, HEK293T-CB1-CRE-Luc cells were cultured in supplemented DMEM (Sigma) medium containing 10% FBS (Gibco) and 1% antibiotics penicillin/streptomycin (Sigma) (DMEM complete medium) and maintained at 37° C in a humidified atmosphere of 5% CO2. […] Luciferase activity was measured using a TriStar2 Berthold/LB942 multimode reader (Berthold Technologies) following the instructions of the luciferase assay kit (Promega, Madison, Wl, USA). The RLUs (relative light units) were calculated and: (i) For allosteric activity, results were expressed as percentage of CB1R activity normalized to 100% stimulation induced by 2.5 µM CP-55,940, according to the following formula: Percentage of CB1R activity = 100 * (T - B) / (C - B); where T are the RLUs of the cells treated with the fractions and 2.5 µM CP-55,940; C are the RLUs of the cells treated with CP-55,940 alone, and B are the RLUs of the cells without stimulus. […]

Row | Compound | percentage of CB1R activity normalized to 100% stimulation induced by 2.5 µM CP-55,940 alone (human CB1R [1]) | CB1R PAM activity (human CB1R [1]) | CB1R PAM activity (human CB1R [1]; listed as Agathadiol) | CB1R agonistic activity on cAMP signaling pathway (human CB1R [2]; at high concentrations, ≥ 2.5-fold increase over non-stimulated cells is considered agonistic) | CB1R agonistic activity on cAMP signaling pathway (human CB1R [2]; at the lower tested concentration)
1 | COc1cc([C@H]2c3cc4c(cc3C[C@@H]3COC(=O)[C@H]32)OCO4)cc(OC)c1OC [deoxypodophyllotoxin, (5S,5aS,8aS)-5-(3,4,5-trimethoxyphenyl)-5a,8,8a,9-tetrahydro-5H-[2]benzofuro[5,6-f][1,3]benzodioxol-6-one] | over 1000% | clear CB1R PAM activities at a range of concentrations |  |  | 
2 | C=C1CC[C@H]2[C@@](C)(CO)CCC[C@]2(C)[C@H]1CC/C(C)=C/CO [agathadiol, (E)-5-[(1S,4aR,5S,8aR)-5-(hydroxymethyl)-5,8a-dimethyl-2-methylidene-3,4,4a,6,7,8-hexahydro-1H-naphthalen-1-yl]-3-methylpent-2-en-1-ol] | over 1000% | clear CB1R PAM activities at a range of concentrations | increasingly stronger bioactive effect as PAM of CB1R with increasing concentrations | medium CB1R agonistic activity | residual

Source: patent EP4167978B1, “USE OF JUNIPER (JUNIPERUS COMMUNIS) BERRIES EXTRACT, DEOXYPODOP[…] […], AS POSITIVE ALLOSTERIC MODULATORS OF CANNABINOID TYPE 1 RECEPTOR FOR TREATING NEUROPATHIC PAIN AND IN[…]” (Vivacell Biotechnology Espana S.L., priority 2020, dated 2022)
